We go through 21 compounds from ChEMBL document CHEMBL6078645, “Expanding the Solvent/Protein Region Occupation of the Non-Nucleoside Reverse Transcriptase Inhibitor Binding Pocket for Improved Broad-Spectrum Anti-HIV-1 Efficacy: from Rigid Phenyl-Diarylpyrimidines to Flexible Hydrophilic Piperidine-Diarylpyrimidines” (J Med Chem, 2024).

Series [1] has as its system Human immunodeficiency virus 1. The series can be described thus: Antiviral activity against HIV-1 harboring F227L/V106A double mutant infected in human MT4 cells assessed as protection against virus-induced cytopathic effect incubated for 5 days by MTT assay. It counts as functional, organism-based. Conditions: Human immunodeficiency virus 1, MT4, 120 h. (Protection from cytopathic effect is a common read-out in antiviral testing.)

A short description of series [2]: Cytotoxicity against human MT4 cells assessed as reduction in cell viability incubated for 5 days by MTT assay. The format is toxicity, cell-based. The following applies: MT4 cells, time 5 day. In general terms: Tetrazolium dyes change colour on reduction, which living cells bring about.
In series [3] the target is T1, Human immunodeficiency virus type 1 reverse transcriptase (Human immunodeficiency virus 1, UniProt Q72547). The experiment in a line: Inhibition of wildtype recombinant HIV-1 Reverse transcriptase incubated for 40 mins by spectrofluorometric analysis.
In series [4] the target is T1, Human immunodeficiency virus type 1 reverse transcriptase. The experiment in a line: Inhibition of HIV-1 reverse transcriptase.
Series [5] has as its system Human immunodeficiency virus 1. The series can be described thus: Antiviral activity against HIV-1 harboring Y188L mutant infected in human MT4 cells assessed as protection against virus-induced cytopathic effect incubated for 5 days by MTT assay. It counts as functional, organism-based. The following applies: Human immunodeficiency virus 1, MT4, 120 h.
Series [6] is described as follows: Selectivity index, ratio of CC50 for cytotoxicity against human MT4 cells assessed as reduction in cell viability to EC50 for antiviral activity against wild type HIV-1 IIIB infected in human MT4 cells assessed as protection against virus-induced cytopathic effect. The format is toxicity, cell-based. Conditions: MT4 cells, read-out: Ratio CC50/EC50.
Series [7] concerns Human immunodeficiency virus 1. The series can be described thus: Antiviral activity against HIV-1 harboring RES056 mutant infected in human MT4 cells assessed as protection against virus-induced cytopathic effect incubated for 5 days by MTT assay. The format is functional, organism-based. The following applies: Human immunodeficiency virus 1, MT4, 120 h.
Series [8] deals with Human immunodeficiency virus 1. The experiment in a line: Antiviral activity against HIV-1 harboring E138K mutant infected in human MT4 cells assessed as protection against virus-induced cytopathic effect incubated for 5 days by MTT assay. The following applies: Human immunodeficiency virus 1, MT4, 120 h. It counts as functional, organism-based.
In series [9] the test system is Human immunodeficiency virus 1. The series can be described thus: Antiviral activity against HIV-1 harboring L100I mutant infected in human MT4 cells assessed as protection against virus-induced cytopathic effect incubated for 5 days by MTT assay. The format is functional, organism-based. The following applies: Human immunodeficiency virus 1, MT4, 120 h.
For series [10], the system named is Human immunodeficiency virus 1. The experiment in a line: Antiviral activity against HIV-1 harboring Y181C mutant infected in human MT4 cells assessed as protection against virus-induced cytopathic effect incubated for 5 days by MTT assay. The format is functional, organism-based. The following applies: Human immunodeficiency virus 1, MT4, 120 h.
The subject of series [11] is Human immunodeficiency virus 1. The experiment in a line: Antiviral activity against HIV-1 harboring K103N mutant infected in human MT4 cells assessed as protection against virus-induced cytopathic effect incubated for 5 days by MTT assay. The format is functional, organism-based. Conditions: Human immunodeficiency virus 1, MT4, 120 h.

“And” between values parts separate entries of the source, which are not always exact repeats. Identical values can stand only once. Where only a bound is given, the exact number is not on record here.

Consider `Cc1cc(-c2ccc(C#N)cc2)cc(C)c1Oc1nc(NC2CCN(Cc3cccc([N+](=O)[O-])c3)CC2)ncc1CO`, for which the EC50 in series [1] stood at 291 nM; in [4], 9 nM; in [5], 167 nM; in [7], 646 nM. In addition, the CC50 at 120 h in [2] is 7.36 µM. The IC50 in series [3] was 184 nM. Moreover, the selectivity ratio in series [6] worked out at 819.
On to `CNC(=O)c1cccc(CN2CCC(Nc3ncc(CO)c(Oc4c(C)cc(-c5ccc(C#N)cc5)cc4C)n3)CC2)c1`, for which the EC50 came out at 5000 nM in series [1], 40 nM in [4], 813 nM in series [5] and 5630 nM in series [7]. Moreover, in series [2], the CC50 at 120 h stood at 20.2 µM. For the same compound, the IC50 in series [3] came out at 305 nM. In addition, in series [6], the selectivity ratio was 506.
For `Cc1cc(-c2ccc(C#N)cc2)cc(C)c1Oc1nc(NC2CCN(Cc3ccccc3C#N)CC2)ncc1CO`, the EC50 in series [1] is 239 nM; in series [4], 8 nM; in series [5], 200 nM; in series [7], 409 nM. Further, in [2], the CC50 at 120 h is 5.14 µM. In addition, the IC50 in [3] worked out at 226 nM. Further, in series [6], the selectivity ratio stood at 628.
Turning to `Cc1cc(-c2ccncc2)cc(C)c1Oc1nc(NC2CCN(Cc3ccc(C(=O)NCCCO)cc3)CC2)ncc1CO`, the half-maximal inhibitory concentration (IC50) in series [3] is 355 nM.
Take `Cc1cc(-c2ccc(C#N)cc2)cc(C)c1Oc1nc(NC2CCN(Cc3ccc(F)cc3)CC2)ncc1CO`: the EC50 in [1] was found to be 558 nM; in series [4], 9 nM; in series [5] it was 283 nM; in series [7] it was 935 nM. In addition, the CC50 at 120 h in series [2] came out at 5.68 µM. The selectivity ratio in [6] is 629.
On to `COC(=O)/C=C/c1ccc(CN2CCC(Nc3ncc(CO)c(Oc4c(C)cc(-c5ccc(C#N)cc5)cc4C)n3)CC2)cc1`, for which the EC50 in series [1] turned out to be 329 nM; in [4], 7 nM; in series [5] it was 213 nM; in [7], 357 nM. In series [2], the CC50 at 120 h turned out to be 88.3 µM. Also, the IC50 in [3] stood at 437 nM. Moreover, in series [6], the selectivity ratio worked out at 13400.
Regarding `COC(=O)c1ccc(CN2CCC(Nc3ncc(CO)c(Oc4c(C)cc(-c5ccc(C#N)cc5)cc4C)n3)CC2)cc1`, the EC50 in [1] stood at 175 nM; in [4], 12 nM; in series [5] it was 175 nM; in series [7], 469 nM. Moreover, the CC50 at 120 h in [2] is 13.9 µM. The IC50 in series [3] was 377 nM. The selectivity ratio in [6] came out at 1120.
Turning to `Cc1cc(-c2ccc(C#N)cc2)cc(C)c1Oc1nc(NC2CCN(Cc3ccc([N+](=O)[O-])cc3)CC2)ncc1CO`, the EC50 in series [1] worked out at 540 nM; in series [4] it was 8 nM; in [5] it was 189 nM; in [7] it was 306 nM. Also, the CC50 at 120 h in [2] was 3.23 µM. For the same compound, the IC50 in series [3] was 202 nM. Also, the selectivity ratio in series [6] was 381.
Regarding `Cc1cc(-c2ccc(C#N)cc2)cc(C)c1Oc1nc(NC2CCN(Cc3ccc(C(N)=O)cc3)CC2)ncc1CO`, the EC50 came to 260 nM in series [1], 7 nM in series [4], 156 nM in [5] and 304 nM in series [7]. Moreover, the CC50 at 120 h in series [2] came to 21.8 µM. In series [3], the IC50 is 265 nM. Besides, the selectivity ratio in [6] came to 3200.
Consider `Cc1cc(-c2ccc(C#N)cc2)cc(C)c1Oc1nc(NC2CCN(Cc3ccc(S(=O)(=O)NCCCO)cc3)CC2)ncc1CO`, for which the EC50 in series [1] stood at 114 nM; in [4] it was 26 nM; in series [5], 240 nM; in series [7], 268 nM. In addition, the CC50 at 120 h in series [2] turned out to be 6.32 µM. Moreover, the IC50 in series [3] stood at 543 nM. Besides, the selectivity ratio in series [6] was 247.
Consider `Cc1cc(-c2ccc(C#N)cc2)cc(C)c1Oc1nc(NC2CCN(Cc3ccc(S(=O)(=O)NCCO)cc3)CC2)ncc1CO`, for which the EC50 turned out to be 69 nM in series [1], 10 nM in series [4], 228 nM in [5] and 327 nM in series [7]. In series [2], the CC50 at 120 h was determined as 15.5 µM. Further, the IC50 in series [3] turned out to be 413 nM. In addition, the selectivity ratio in series [6] is 1630.
With `Cc1ccc(CN2CCC(Nc3ncc(CO)c(Oc4c(C)cc(-c5ccc(C#N)cc5)cc4C)n3)CC2)cc1`, the EC50 in series [1] is 810 nM; in series [4], 13 nM; in series [5] it was 237 nM; in [7] it was 1120 nM. For the same compound, the CC50 at 120 h in series [2] was 3.66 µM. The IC50 in series [3] amounted to 626 nM. Also, the selectivity ratio in series [6] stood at 285.
For `Cc1cc(-c2ccc(C#N)cc2)cc(C)c1Oc1nc(NC2CCN(Cc3ccc(C(F)(F)F)cc3)CC2)ncc1CO`, the EC50 was 1590 nM in [1], 40 nM in [4], 701 nM in series [5] and 2600 nM in series [7]. For the same compound, in [2], the CC50 at 120 h was 5.05 µM. Moreover, the selectivity ratio in series [6] came out at 127.
As for `Cc1cc(-c2ccc(C#N)cc2)cc(C)c1Oc1nc(NC2CCN(Cc3cccc(C(N)=O)c3)CC2)ncc1CO`, the concentration for a half-maximal effect (EC50) in series [1] turned out to be 271 nM; in series [4], 8 nM; in series [5] it was 255 nM; in series [7], 1210 nM. Moreover, the CC50 at 120 h in [2] stood at 18.4 µM. The IC50 in [3] came out at 201 nM. For the same compound, the selectivity ratio in series [6] was found to be 2230.
Take `Cc1cc(-c2ccc(C#N)cc2)cc(C)c1Oc1nc(NC2CCN(Cc3ccc(C(=O)NCCO)cc3)CC2)ncc1CO`: the CC50 at 120 h in [2] is 16.3 µM. The EC50 in series [4] turned out to be 14 nM. In addition, in [6], the selectivity ratio amounted to 1140.
For the compound `CNC(=O)c1ccc(CN2CCC(Nc3ncc(CO)c(Oc4c(C)cc(-c5ccc(C#N)cc5)cc4C)n3)CC2)cc1`, the EC50 amounted to 1390 nM in series [1], 23 nM in series [4], 551 nM in series [5] and 4690 nM in series [7]. The CC50 at 120 h in series [2] is 28.1 µM. The IC50 in [3] was determined as 438 nM. Besides, the selectivity ratio in series [6] worked out at 1250.
Turning to `Cc1cc(-c2ccc(C#N)cc2)cc(C)c1Oc1nc(NC2CCN(Cc3ccc(OC(F)(F)F)cc3)CC2)ncc1CO`, the EC50 is 1080 nM in series [1], 43 nM in [4], 479 nM in series [5] and 1260 nM in [7]. Moreover, in [2], the CC50 at 120 h is 5.96 µM. Besides, the IC50 in [3] is 375 nM and 249 nM. The selectivity ratio in series [6] was 140.
In the case of `O=C1Nc2ccc(Cl)cc2[C@@](C#CC2CC2)(C(F)(F)F)O1` [EFAVIRENZ], the EC50 in series [8] worked out at 10 nM; in series [9], 0.055 µM; in series [10] it was 8 nM; in series [7], 579 nM. Also, the 50% cytotoxic concentration (CC50) at 120 h in series [2] was more than 6.35 µM.
For the compound `Cc1ccnc2c1NC(=O)c1cccnc1N2C1CC1` [NEVIRAPINE], the EC50 in series [9] was 1360 µM; in [1] it was 6460 nM; in series [10], 6920 nM; in series [5], 9310 nM; in series [7], more than 15300 nM; in [11], 2180 nM. The 50% cytotoxic concentration (CC50) at 120 h in series [2] was more than 15.3 µM.
`Cc1cc(/C=C/C#N)cc(C)c1Nc1ccnc(Nc2ccc(C#N)cc2)n1` [RILPIVIRINE]: the EC50 in [9] amounted to 0.002 µM; in series [4], 1 nM.
Consider `Cc1cn([C@H]2C[C@H](N=[N+]=[N-])[C@@H](CO)O2)c(=O)[nH]c1=O` [ZIDOVUDINE], for which the EC50 in series [8] stood at 32 nM; in [1] it was 17 nM; in [4], 27 nM; in series [10], 22 nM; in series [5] it was 15 nM; in series [7] it was 34 nM. In addition, the EC50 in series [11] is 29 nM. Moreover, in [2], the CC50 at 120 h is more than 7.49 µM. Also, the selectivity ratio in series [6] is more than 281.

As a reminder, the EC50 is the concentration needed to bring the measured effect to its halfway point. For orientation: CC50 means the concentration giving 50% cytotoxicity. As a reminder, the IC50 is the concentration needed to halve the response being measured.
